target: DCN1-UBC12 interaction (Homo sapiens (Human), UniProt Q96GG9); assay: biochemical; assay type: binding; conditions: TR-FRET IC50
Sequence (Q96GG9 60-248 limits assumed): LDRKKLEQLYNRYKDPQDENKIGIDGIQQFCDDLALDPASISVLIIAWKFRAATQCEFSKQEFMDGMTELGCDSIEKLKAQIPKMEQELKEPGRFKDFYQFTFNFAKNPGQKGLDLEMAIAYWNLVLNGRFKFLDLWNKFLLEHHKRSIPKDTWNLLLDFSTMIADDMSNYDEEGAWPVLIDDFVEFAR

Molecule	IC50
CCCC(C)N1CCC(N(Cc2ccccc2)C(=O)Nc2ccc(Cl)cc2)CC1 (stereo not drawn) [A13]	83 nM
CCCC(C)N1CCC(N(Cc2ccccc2)C(=O)Nc2cccc(C(C)C)c2)CC1 (stereo not drawn) [A33]	200 nM
CCCC(C)N1CCC(N(Cc2ccccc2)C(=O)Nc2cccc(Cl)c2)CC1 (stereo not drawn) [A35]	203 nM
CCCC(C)N1CCC(N(Cc2ccccc2)C(=O)Nc2ccc(F)c(C(F)(F)F)c2)CC1 (stereo not drawn) [A57]	315 nM

same assay, conditions: read-out: TR-FRET IC50

Molecule	IC50
1-(1-(2-Methylbenzyl)Piperidin-4-yl)-3-(3-(Trifluoromethyl)Phenyl)Urea [A137]	3800 nM
1-(1-((1H-Imidazol-4-yl)Methyl)Piperidin-4-yl)-1-Benzyl-3-(3-(Trifluoromethyl)Phenyl)Urea [A184]	29000 nM
1-(1-((1H-Pyrazol-3-yl)Methyl)Piperidin-4-yl)-1-Benzyl-3-(3-(Trifluoromethyl)Phenyl)Urea [A180]	19800 nM
1-(1-Acryloylpiperidin-4-yl)-1-Benzyl-3-(3-(Trifluoromethyl)Phenyl)Urea [A65]	446 nM
1-Benzyl-1-(1-(3,3-Dimethylbutyl)Piperidin-4-yl)-3-(3-(Trifluoromethyl)Phenyl)Urea [A298]	> 85000 nM
1-Benzyl-1-(1-(4-Fluorobenzyl)Piperidin-4-yl)-3-(3-(Trifluoromethyl)Phenyl)Urea [A171]	12700 nM
1-Benzyl-1-(1-(Cyclohexylmethyl)Piperidin-4-yl)-3-(3-(Trifluoromethyl)Phenyl)Urea [A149]	5250 nM
1-Benzyl-1-(1-(Cyclopropylmethyl)Piperidin-4-yl)-3-(3-(Trifluoromethyl)Phenyl)Urea [A30]	178 nM
1-Benzyl-1-(1-(Pentan-2-yl)Piperidin-4-yl)-3-(3-(Trifluoromethyl)Phenyl)Urea [A293]	> 78200 nM
1-Benzyl-1-(1-(Propylsulfonyl)Piperidin-4-yl)-3-(3-(Trifluoromethyl)Phenyl)Urea [A79]	810 nM
1-Benzyl-1-(1-Hexylpiperidin-4-yl)-3-(3-(Trifluoromethyl)Phenyl)Urea [A289]	> 73200 nM
1-Benzyl-1-(1-Isopentylpiperidin-4-yl)-3-(3-(Trifluoromethyl)Phenyl)Urea [A90]	1130 nM
C=CS(=O)(=O)NCc1cccc(CN(C(=O)Nc2cccc(C(F)(F)F)c2)C2CCN(C(C)CCC)CC2)c1 (stereo not drawn) [A1]	4.3 nM
C=CS(=O)(=O)NCc1ccccc1CN(C(=O)Nc1cccc(C(F)(F)F)c1)C1CCN(C(C)CCC)CC1 (stereo not drawn) [A2]	6.8 nM
CCCC(C)N1CCC(N(Cc2ccccc2)C(=O)Nc2ccc(I)cc2)CC1 (stereo not drawn) [A4]	35 nM
CCCC(C)N1CCC(N(Cc2ccccc2)C(=O)Nc2ccc(Br)cc2)CC1 (stereo not drawn) [A5]	55.9 nM
CCCC(C)N1CCC(N(Cc2ccccc2)C(=O)Nc2cc(F)cc(C(F)(F)F)c2)CC1 (stereo not drawn) [A6]	58 nM
CCCC(C)N1CCC(N(Cc2ccccc2)C(=O)Nc2ccc3c(c2)CCC3)CC1 (stereo not drawn) [A8]	76.7 nM
CCCC(C)N1CCC(N(Cc2ccc3c(c2)OCO3)C(=O)Nc2ccc(Cl)c(Cl)c2)CC1 (stereo not drawn) [A9]	78.8 nM
CCCC(C)N1CCC(N(Cc2ccccc2)C(=O)Nc2ccc3ccccc3c2)CC1 (stereo not drawn) [A10]	78.9 nM
CCCC(C)N1CCC(N(Cc2ccccc2)C(=O)Nc2ccc(Cl)c([N+](=O)[O-])c2)CC1 (stereo not drawn) [A11]	81.8 nM
CCCC(C)N1CCC(N(Cc2ccccc2)C(=O)Nc2cccc(OC(F)(F)F)c2)CC1 (stereo not drawn) [A12]	82.7 nM
CCCC(C)N1CCC(N(Cc2ccccc2)C(=O)Nc2ccc(SC(F)(F)F)cc2)CC1 (stereo not drawn) [A14]	85.3 nM
CCCC(C)N1CCC(N(Cc2cccnc2)C(=O)Nc2ccc(Cl)c(Cl)c2)CC1 (stereo not drawn) [A16]	90.5 nM
CCCC(C)N1CCC(N(Cc2cccc(NC(=O)CCl)c2)C(=O)Nc2cccc(C(F)(F)F)c2)CC1 (stereo not drawn) [A17]	95.1 nM
CCCCCCc1ccc(NC(=O)N(Cc2ccccc2)C2CCN(C(C)CCC)CC2)cc1 (stereo not drawn) [A19]	116 nM

Molecule	IC50
CCCCN(C(=O)Nc1ccc(Cl)c(Cl)c1)C1CCN(C(C)CCC)CC1 (stereo not drawn) [A20]	116 nM
CCCC(C)N1CCC(N(Cc2ccccc2)C(=O)Nc2ccc(Oc3ccc(Cl)cc3)cc2)CC1 (stereo not drawn) [A22]	131 nM
CCCC(C)N1CCC(N(Cc2ccccc2)C(=O)Nc2cccc(Cc3ccccc3)c2)CC1 (stereo not drawn) [A23]	140 nM
CCCC(C)N1CCC(N(Cc2ccccc2CNC(=O)CCl)C(=O)Nc2cccc(C(F)(F)F)c2)CC1 (stereo not drawn) [A24]	154 nM
CCCC(C)N1CCC(N(Cc2ccccc2)C(=O)Nc2cccc(S(F)(F)(F)(F)F)c2)CC1 (stereo not drawn) [A25]	155 nM
CCCCN1CCC(N(Cc2ccccc2)C(=O)Nc2ccc(F)c(C(F)(F)F)c2)CC1 [A26]	163 nM
C=CS(=O)(=O)Nc1cccc(CN(C(=O)Nc2cccc(C(F)(F)F)c2)C2CCN(C(C)CCC)CC2)c1 (stereo not drawn) [A27]	165 nM
CCCCN1CCC(N(Cc2ccccc2)C(=O)Nc2ccc(C)c(Cl)c2)CC1 [A28]	166 nM
CCCC(C)N1CCC(N(Cc2ccccc2)C(=O)Nc2ccc(C)c(C)c2)CC1 (stereo not drawn) [A31]	184 nM
CCCC(C)N1CCC(N(Cc2ccccc2)C(=O)Nc2ccc(OC(F)(F)F)cc2)CC1 (stereo not drawn) [A32]	191 nM
CCCC(C)N1CCC(N(Cc2ccccc2)C(=O)Nc2ccc(C)c([N+](=O)[O-])c2)CC1 (stereo not drawn) [A36]	206 nM
CCCC(C)N1CCC(N(Cc2ccccc2NC(=O)CCl)C(=O)Nc2cccc(C(F)(F)F)c2)CC1 (stereo not drawn) [A38]	208 nM
CCCC(C)N1CCC(N(Cc2cccnc2)C(=O)Nc2cc(F)cc(C(F)(F)F)c2)CC1 (stereo not drawn) [A39]	213 nM
CCCC(C)N1CCC(N(Cc2ccccc2)C(=O)Nc2ccc(Cl)c(Cl)c2F)CC1 (stereo not drawn) [A40]	227 nM
CCCC(C)N1CCC(N(Cc2ccccc2)C(=O)Nc2ccc(C(F)(F)F)cc2)CC1 (stereo not drawn) [A41]	237 nM
CCCC(C)N1CCC(N(Cc2ccccc2)C(=O)Nc2cccc(SC)c2)CC1 (stereo not drawn) [A44]	254 nM
CCCCN1CCC(N(Cc2ccccc2)C(=O)Nc2cc(F)cc(C(F)(F)F)c2)CC1 [A45]	256 nM
CCCC(C)N1CCC(N(Cc2ccccc2)C(=O)Nc2ccc(Cl)c(Cl)c2)CC1 (stereo not drawn) [A46]	257 nM
CCCC(C)N1CCC(N(Cc2ccccc2)C(=O)Nc2cc(F)cc(S(F)(F)(F)(F)F)c2)CC1 (stereo not drawn) [A48]	260 nM
CCCC(C)N1CCC(N(Cc2ccccc2)C(=O)Nc2ccc(Cl)c(F)c2)CC1 (stereo not drawn) [A49]	265 nM
CCCC(C)N1CCC(N(Cc2ccccc2)C(=O)Nc2ccc(C)cc2)CC1 (stereo not drawn) [A50]	268 nM
CCCC(C)N1CCC(N(Cc2ccc3c(c2)OCO3)C(=O)Nc2cc(F)cc(C(F)(F)F)c2)CC1 (stereo not drawn) [A51]	273 nM
CCCC(C)N1CCC(N(Cc2ccccc2)C(=O)Nc2ccc3c(c2)OC(F)(F)O3)CC1 (stereo not drawn) [A52]	281 nM
CCCC(C)N1CCC(N(Cc2ccccc2)C(=O)Nc2ccc(F)c(Cl)c2)CC1 (stereo not drawn) [A53]	287 nM
CCCC(C)N1CCC(N(Cc2ccccc2)C(=O)Nc2ccc(F)c(S(F)(F)(F)(F)F)c2)CC1 (stereo not drawn) [A54]	295 nM
CCCC(C)N1CCC(N(Cc2cccnc2)C(=O)Nc2ccc(F)c(C(F)(F)F)c2)CC1 (stereo not drawn) [A55]	303 nM

Molecule	IC50
CCCC(C)N1CCC(N(Cc2ccccc2)C(=O)Nc2ccc(CC)cc2)CC1 (stereo not drawn) [A56]	315 nM
CCCC(C)N1CCC(N(Cc2ccccc2)C(=O)Nc2cc(F)c(F)c(F)c2)CC1 (stereo not drawn) [A59]	355 nM
CCCCN1CCC(N(Cc2ccccc2)C(=O)Nc2cccc(Cl)c2)CC1 [A60]	358 nM
CCCC(C)N1CCC(N(Cc2ccc3c(c2)OCO3)C(=O)Nc2ccc(F)c(C(F)(F)F)c2)CC1 (stereo not drawn) [A61]	371 nM
CCCC(C)N1CCC(N(Cc2ccccc2)C(=O)Nc2cccc(Cl)c2F)CC1 (stereo not drawn) [A62]	385 nM
CCCCN1CCC(N(Cc2ccccc2)C(=O)Nc2cccc(CC)c2)CC1 [A63]	413 nM
CCCC(C)N1CCC(N(Cc2ccccc2)C(=O)Nc2ccc(Cl)c(C(F)(F)F)c2)CC1 (stereo not drawn) [A64]	414 nM
CCCc1ccc(NC(=O)N(Cc2ccccc2)C2CCN(C(C)CCC)CC2)cc1 (stereo not drawn) [A66]	470 nM
CCCC(C)N1CCC(N(Cc2ccccc2)C(=O)Nc2cc(F)cc(Cl)c2)CC1 (stereo not drawn) [A67]	482 nM
CCCN1CCC(N(Cc2cc(F)cc(C(F)(F)F)c2)C(=O)Nc2cccc(C(F)(F)F)c2)CC1 [A68, 1-(3-Fluoro-5-(Trifluoromethyl)Benzyl)-1-(1-Propylpiperidin-4-yl)-3-(3-(Trifluoromethyl)Phenyl)Urea]	488 nM
CCCC(C)N1CCC(N(Cc2ccccc2)C(=O)Nc2ccc(Oc3ccncc3)cc2)CC1 (stereo not drawn) [A69]	567 nM
CCCCN1CCC(N(Cc2ccccc2)C(=O)Nc2cccc(C(F)(F)F)c2F)CC1 [A70]	583 nM
CCCCN1C(C)CC(N(Cc2ccccc2)C(=O)Nc2cccc(C(F)(F)F)c2)CC1C (stereo not drawn) [A71]	589 nM
CCCC(C)N1CCC(N(Cc2ccccc2)C(=O)Nc2cccc(F)c2)CC1 (stereo not drawn) [A72]	621 nM
CCCC(C)N1CCC(N(Cc2ccccc2)C(=O)Nc2ccc(Oc3ccccc3)c(C(F)(F)F)c2)CC1 (stereo not drawn) [A75]	731 nM
CCCN1CCC(N(Cc2ccco2)C(=O)Nc2cccc(C(F)(F)F)c2)CC1 [A77, 1-(Furan-2-Ylmethyl)-1-(1-Propylpiperidin-4-yl)-3-(3-(Trifluoromethyl)Phenyl)Urea]	798 nM
CCCC(C)N1CCC(N(Cc2ccccc2)C(=O)Nc2cc(Cl)c(Cl)cc2F)CC1 (stereo not drawn) [A78]	801 nM
CCCC(C)N1CCC(N(Cc2ccccc2)C(=O)Nc2cccc(C(=O)OC)c2)CC1 (stereo not drawn) [A81]	880 nM
CCCC(C)N1CCC(N(Cc2ccccc2)C(=O)Nc2cccc(C)c2)CC1 (stereo not drawn) [A82]	883 nM
CCCCN(C(=O)Nc1cc(F)cc(C(F)(F)F)c1)C1CCN(C(C)CCC)CC1 (stereo not drawn) [A84]	917 nM
CCCN1CCC(N(Cc2ccccc2)C(=O)Nc2cccc(C(F)(F)F)c2)CC1 [A85, 1-Benzyl-1-(1-Propylpiperidin-4-yl)-3-(3-(Trifluoromethyl)Phenyl)Urea]	980 nM
CCCC(C)N1CCC(N(Cc2ccccc2)C(=O)Nc2ccc3c(c2)OCO3)CC1 (stereo not drawn) [A86]	990 nM
CCCCN(C(=O)Nc1ccc(F)c(C(F)(F)F)c1)C1CCN(C(C)CCC)CC1 (stereo not drawn) [A87]	1010 nM
CCCCN1CCC(N(Cc2ccccc2)C(=O)Nc2ccc(F)c(Cl)c2)CC1 [A89]	1090 nM
CCCC(C)N1CCC(N(Cc2ccccc2)C(=O)Nc2ccc(Cl)cc2F)CC1 (stereo not drawn) [A91]	1190 nM
